In US11464749B2, “Bismuth-thiol compositions and methods of use” (Microbion Corporation, priority 2018, dated 2022):
Where “and” joins values, the source holds several entries; their conditions need not be identical. Equal values may be shown once. Read-outs that look alike come from different tables or passages of the source.

Columns and labels:
[1] = system: S. agalactiae; assay: Broth microdilution MIC (Example 11); conditions: Streptococcus agalactiae
[2] = system: P. aeruginosa; assay: FIC checkerboard assay; assay type: cell-based; conditions: for MIC: Pseudomonas aeruginosa
[3] = system: Escherichia coli; assay: Broth microdilution MIC (Example 11)
[4] = system: Pseudomonas aeruginosa; assay: Broth microdilution MIC (Example 11); conditions: Pseudomonas aeruginosa
[5] = system: E. faecalis; assay: Broth microdilution MIC (Example 11); conditions: Enterococcus faecalis, VRE, VRE Lev^R Cip^R Ery^R
[6] = system: Klebsiella pneumoniae; assay: Broth microdilution MIC (Example 11)
[7] = system: B. cepacia; assay: FIC checkerboard assay; assay type: cell-based; conditions: Burkholderia cepacia, Meropenem alone (checkerboard with BisEDT), read-out: Drug B MIC
[8] = system: Acinetobacter baumannii; assay: Broth microdilution MIC (Example 11); conditions: Acinetobacter baumannii
[9] = system: S. pyogenes; assay: Broth microdilution MIC (Example 11); conditions: Streptococcus pyogenes
[10] = system: Staphylococcus aureus (MRSA); assay: Broth microdilution MIC (Example 11)
[11] = system: B. cenocepacia; assay: FIC checkerboard assay; assay type: cell-based; conditions: for FICB: FIC of Meropenem in combination with BisEDT; for FICB / MICB: per checkerboard row; for MICB: MIC of Meropenem in combination with BisEDT; for MIC: Burkholderia cenocepacia, Meropenem alone (panel with BisEDT), read-out: Drug B MIC
[12] = system: S. pneumoniae; assay: Broth microdilution MIC (Example 11); conditions: Streptococcus pneumoniae

C[C@@H](O)[C@H]1C(=O)N2C(C(=O)O)=C(S[C@@H]3CN[C@H](C(=O)N(C)C)C3)[C@H](C)[C@H]12 [Meropenem, reference compound]
4 µg/mL: MIC ([6]; K. pneumoniae MMX 4685, ESBL, Lev^R, MEM^R, CAZ^R) | MIC ([7]; B. cepacia 546) | MIC ([7]; B. cepacia 1793) | MIC ([8]; A. baumannii MMX 3372, MDR, Cip^R, MEM^I, CAZ^I) | MIC ([10]; MRSA, S. aureus MMX 9203, MRSA Lev^R Cip^R Ery^R Ox^R) | MIC ([10]; MRSA, S. aureus MMX 9204, MRSA Lev^R Cip^R Ery^R Ox^R) | MIC ([11]; B. cenocepacia 548)
0.5 and 1: FICB ([11]; B. cenocepacia 548) | FICB ([11]; B. cenocepacia 813)
0.015 µg/mL: MIC ([3]; E. coli MMX 8425, ESBL, Lev^R, CAZ^R, Gm^R)
0.5 µg/mL: MIC ([4]; ATCC27853, P. aeruginosa MMX 103 (ATCC 27853), QC) | MIC ([8]; A. baumannii MMX 3373, Sensitive) | MIC ([12]; S. pneumoniae MMX 880, Lev^R SXT^R CC^R Ery^R Pen^R)
1 µg/mL and 2 µg/mL: MICB ([11]; B. cenocepacia 813)
0.03 µg/mL: MIC ([1]; S. agalactiae MMX 3741, ERY^R CC^R) | MIC ([3]; ATCC25922, E. coli MMX 102 (ATCC 25922), QC) | MIC ([3]; E. coli MMX 8423, ESBL, Lev^R, CAZ^R, Gm^R) | MIC ([3]; E. coli MMX 8424, ESBL, CAZ^R) | MIC ([12]; S. pneumoniae MMX 3959, CC^R Ery^R)
2 µg/mL: MIC ([5]; E. faecalis MMX 8962) | MIC ([11]; B. cenocepacia 813)
2 µg/mL and 4 µg/mL: MICB ([11]; B. cenocepacia 548)
1 µg/mL: MIC ([2]; P. aeruginosa 9108, Meropenem alone (checkerboard with BisEDT), read-out: Drug B MIC) | MIC ([12]; S. pneumoniae MMX 937, Mem^R SXT^R CC^R Ery^R Pen^R) | MIC ([12]; S. pneumoniae MMX 5440, Mem^R SXT^R CC^R Ery^R Pen^R) | MIC ([12]; S. pneumoniae MMX 5445, Mem^R SXT^R CC^R Ery^R Pen^R) | MIC ([12]; S. pneumoniae MMX 8133, Mem^R SXT^R CC^R Ery^R Pen^R)
16 µg/mL: MICB (Drug B in combination) ([2]; P. aeruginosa 6322, with BisEDT, checkerboard rows C-G) | MIC ([2]; P. aeruginosa 6322, checkerboard panel BisEDT/Meropenem, read-out: Drug B MIC (alone)) | MIC ([2]; P. aeruginosa 7745, Meropenem alone (checkerboard with BisEDT), read-out: Drug B MIC) | MIC ([4]; P. aeruginosa MMX 1381, MDR, Lev^R, Cip^R, MEM^R, CAZ^R) | MIC ([4]; P. aeruginosa MMX 3991, MDR, Lev^R, Cip^R, MEM^R, CAZ^R)
32 µg/mL: MIC ([2]; P. aeruginosa 8798, Meropenem alone (checkerboard with BisEDT), read-out: Drug B MIC) | MIC ([3]; ATCCBAA2469, E. coli MMX 5980 (ATCC BAA-2469), NDM-1, Lev^R, MEM^R, CAZ^R, Gm^R) | MIC ([4]; P. aeruginosa MMX 2562, MDR, Lev^R, Cip^R, MEM^R, CAZ^R) | MIC ([6]; K. pneumoniae MMX 4683, KPC-2, Lev^R, MEM^R, CAZ^R) | MIC ([6]; K. pneumoniae MMX 4694, KPC-3, Lev^R, MEM^R, CAZ^R) | MIC ([10]; MRSA, S. aureus MMX 5373, MRSA Lev^R Cip^R CC^R Ery^R Ox^R)
> 64 µg/mL: MIC ([4]; P. aeruginosa MMX 4654, IMP-7, Lev^R, Cip^R, MEM^R, CAZ^R) | MIC ([6]; K. pneumoniae MMX 4622, KPC-2, MEM^R, CAZ^R) | MIC ([6]; K. pneumoniae MMX 4623, KPC-2, MEM^R, CAZ^R, GM^R) | MIC ([6]; K. pneumoniae MMX 4653, KPC-3, Lev^R, MEM^R, CAZ^R) | MIC ([6]; K. pneumoniae MMX 5979, NDM-1, Lev^R, MEM^R, CAZ^R, Gm^R)
≤ 0.008 µg/mL: MIC ([9]; S. pyogenes MMX 3068, Ery^R) | MIC ([9]; S. pyogenes MMX 3820, ERY^R CLI^R) | MIC ([9]; S. pyogenes MMX 3919, ERY^R) | MIC ([9]; S. pyogenes MMX 3929, ERY^R CC^R) | MIC ([9]; S. pyogenes MMX 5091, ERY^R CC^R)
8 µg/mL: MIC ([1]; S. agalactiae MMX 4079, ERY^R CC^R Pen^R MEM^R) | MIC ([2]; P. aeruginosa 6977, Meropenem alone (checkerboard with BisEDT), read-out: Drug B MIC) | MIC ([4]; P. aeruginosa MMX 4697, VIM-2, Lev^R, Cip^R, MEM^R, CAZ^R) | MIC ([5]; E. faecalis MMX 8960) | MIC ([5]; E. faecalis MMX 8961) | MIC ([6]; K. pneumoniae MMX 4684, ESBL, MEM^R) | MIC ([10]; MRSA, S. aureus MMX 6311, MRSA Lev^R Cip^R CC^R Ery^R Ox^R)
0.06 µg/mL: MIC ([1]; S. agalactiae MMX 3743, ERY^R CC^R) | MIC ([1]; S. agalactiae MMX 4077, ERY^R CC^R) | MIC ([1]; S. agalactiae MMX 4086, ERY^R CC^R) | MIC ([10]; ATCC29213|MRSA|MSSA, S. aureus MMX 101 (ATCC 29213), QC, MSSA) | MIC ([12]; ATCC49619, S. pneumoniae MMX 6837 (ATCC 49619), QC)
64 µg/mL: MIC ([8]; A. baumannii MMX 2592, MDR, Lev^R, Cip^R, MEM^R, CAZ^R, Gm^R) | MIC ([8]; A. baumannii MMX 2593, MDR, Lev^R, Cip^R, MEM^R, CAZ^R, Gm^R) | MIC ([8]; NCTC13304, A. baumannii MMX 4651 (NCTC 13304), MDR, OXA-27, Lev^R, Cip^R, MEM^R, CAZ^R, Gm^I) | MIC ([10]; MRSA, S. aureus MMX 9205, MRSA Lev^R Cip^R CC^R Ery^R Ox^R)
